Laboratory results taken from ChEMBL document CHEMBL5291721, “A preclinical secondary pharmacology resource illuminates target-adverse drug reaction associations of marketed drugs” (Nat Commun, 2023).

Key:
Estrogen receptor beta = Estrogen receptor beta (Homo sapiens, UniProt Q92731)
Androgen receptor = target: T1, Androgen receptor (Rattus norvegicus, UniProt P15207)
T1 sequence (P15207 whole entry): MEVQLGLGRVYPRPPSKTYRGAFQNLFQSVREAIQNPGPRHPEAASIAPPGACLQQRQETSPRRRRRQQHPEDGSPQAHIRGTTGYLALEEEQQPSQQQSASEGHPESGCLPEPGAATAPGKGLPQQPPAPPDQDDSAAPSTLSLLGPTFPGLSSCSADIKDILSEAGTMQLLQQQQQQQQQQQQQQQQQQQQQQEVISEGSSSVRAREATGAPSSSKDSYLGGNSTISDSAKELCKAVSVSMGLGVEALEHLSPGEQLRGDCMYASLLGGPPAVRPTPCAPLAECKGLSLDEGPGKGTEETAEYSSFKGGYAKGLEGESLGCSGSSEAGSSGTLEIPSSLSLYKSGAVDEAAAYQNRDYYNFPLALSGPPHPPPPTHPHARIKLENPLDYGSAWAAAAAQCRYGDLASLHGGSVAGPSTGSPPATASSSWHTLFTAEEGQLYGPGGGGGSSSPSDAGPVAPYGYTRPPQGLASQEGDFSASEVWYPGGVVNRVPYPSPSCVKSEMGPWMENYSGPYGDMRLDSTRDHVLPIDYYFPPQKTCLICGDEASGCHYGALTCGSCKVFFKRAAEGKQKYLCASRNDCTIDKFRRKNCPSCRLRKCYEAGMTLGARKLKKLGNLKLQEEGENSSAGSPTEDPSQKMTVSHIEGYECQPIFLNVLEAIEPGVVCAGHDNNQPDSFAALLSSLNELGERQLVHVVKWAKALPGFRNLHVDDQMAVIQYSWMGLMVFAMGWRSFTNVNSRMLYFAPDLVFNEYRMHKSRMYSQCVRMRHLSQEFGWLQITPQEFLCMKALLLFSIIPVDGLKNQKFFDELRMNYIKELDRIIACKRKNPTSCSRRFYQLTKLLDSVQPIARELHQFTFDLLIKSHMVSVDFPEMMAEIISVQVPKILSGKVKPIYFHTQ

[1] = target: Voltage-dependent N-type calcium channel subunit alpha-1B (Rattus norvegicus, UniProt Q02294); assay type: functional
Chain of Voltage-dependent N-type calcium channel subunit alpha-1B (Q02294 whole entry): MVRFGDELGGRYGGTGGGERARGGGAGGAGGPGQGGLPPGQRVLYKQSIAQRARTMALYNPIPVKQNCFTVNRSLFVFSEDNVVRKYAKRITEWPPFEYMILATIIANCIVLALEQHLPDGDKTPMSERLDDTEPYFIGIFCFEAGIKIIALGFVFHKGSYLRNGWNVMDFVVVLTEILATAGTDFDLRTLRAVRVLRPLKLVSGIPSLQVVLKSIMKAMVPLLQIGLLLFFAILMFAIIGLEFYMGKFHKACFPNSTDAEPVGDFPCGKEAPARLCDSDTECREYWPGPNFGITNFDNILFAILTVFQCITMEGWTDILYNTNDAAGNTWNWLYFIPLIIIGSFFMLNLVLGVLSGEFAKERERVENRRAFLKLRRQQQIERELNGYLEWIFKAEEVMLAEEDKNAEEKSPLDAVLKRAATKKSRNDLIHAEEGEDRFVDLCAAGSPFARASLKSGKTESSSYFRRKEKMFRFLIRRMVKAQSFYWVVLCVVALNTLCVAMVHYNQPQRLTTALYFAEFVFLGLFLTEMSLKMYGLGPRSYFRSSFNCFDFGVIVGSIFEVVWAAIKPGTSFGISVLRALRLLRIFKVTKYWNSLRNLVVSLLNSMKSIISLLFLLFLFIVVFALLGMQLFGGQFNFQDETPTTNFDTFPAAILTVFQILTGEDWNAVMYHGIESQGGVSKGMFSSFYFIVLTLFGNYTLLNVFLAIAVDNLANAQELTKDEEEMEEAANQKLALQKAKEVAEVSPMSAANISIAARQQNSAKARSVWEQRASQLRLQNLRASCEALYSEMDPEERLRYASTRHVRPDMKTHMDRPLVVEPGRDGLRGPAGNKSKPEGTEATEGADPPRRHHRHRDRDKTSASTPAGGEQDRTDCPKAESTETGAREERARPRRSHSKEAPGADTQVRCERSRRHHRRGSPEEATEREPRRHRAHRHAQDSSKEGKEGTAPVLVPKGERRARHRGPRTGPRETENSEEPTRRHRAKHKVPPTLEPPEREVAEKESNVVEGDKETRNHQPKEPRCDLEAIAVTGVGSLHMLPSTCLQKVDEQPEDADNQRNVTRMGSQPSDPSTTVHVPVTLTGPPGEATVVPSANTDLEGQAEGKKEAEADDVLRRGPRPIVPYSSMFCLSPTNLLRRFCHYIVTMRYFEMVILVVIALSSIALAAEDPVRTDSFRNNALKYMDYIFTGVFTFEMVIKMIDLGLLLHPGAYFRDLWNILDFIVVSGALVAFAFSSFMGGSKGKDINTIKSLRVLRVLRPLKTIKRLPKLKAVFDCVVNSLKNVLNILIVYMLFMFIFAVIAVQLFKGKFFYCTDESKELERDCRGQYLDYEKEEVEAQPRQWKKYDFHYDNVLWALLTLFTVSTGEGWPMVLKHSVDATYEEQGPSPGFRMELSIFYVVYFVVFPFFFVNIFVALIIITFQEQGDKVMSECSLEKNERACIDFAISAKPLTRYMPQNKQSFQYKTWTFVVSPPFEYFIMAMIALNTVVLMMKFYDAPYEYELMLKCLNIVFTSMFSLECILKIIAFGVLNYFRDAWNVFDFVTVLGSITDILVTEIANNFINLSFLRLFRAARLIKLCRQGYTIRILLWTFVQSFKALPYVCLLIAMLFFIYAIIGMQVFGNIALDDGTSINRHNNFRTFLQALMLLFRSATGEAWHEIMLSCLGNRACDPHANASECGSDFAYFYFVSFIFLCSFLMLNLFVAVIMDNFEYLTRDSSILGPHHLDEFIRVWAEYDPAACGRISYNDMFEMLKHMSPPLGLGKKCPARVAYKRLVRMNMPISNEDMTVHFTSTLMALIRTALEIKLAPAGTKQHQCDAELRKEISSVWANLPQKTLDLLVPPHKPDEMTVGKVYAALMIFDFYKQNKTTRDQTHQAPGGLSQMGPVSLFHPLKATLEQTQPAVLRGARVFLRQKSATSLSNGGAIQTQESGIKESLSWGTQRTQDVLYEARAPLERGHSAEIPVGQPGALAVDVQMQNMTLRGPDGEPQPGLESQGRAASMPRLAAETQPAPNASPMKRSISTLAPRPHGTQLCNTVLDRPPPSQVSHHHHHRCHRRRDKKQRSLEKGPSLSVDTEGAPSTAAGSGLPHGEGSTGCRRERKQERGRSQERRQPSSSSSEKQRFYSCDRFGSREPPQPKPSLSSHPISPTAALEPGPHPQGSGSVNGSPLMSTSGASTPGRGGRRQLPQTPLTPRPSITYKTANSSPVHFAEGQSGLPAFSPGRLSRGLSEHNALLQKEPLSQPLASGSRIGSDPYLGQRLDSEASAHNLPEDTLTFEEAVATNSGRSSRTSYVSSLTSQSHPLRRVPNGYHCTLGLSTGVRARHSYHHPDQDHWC

Substance-P receptor = Substance-P receptor (Homo sapiens, UniProt P25103)
Chain of Substance-P receptor (P25103 whole entry): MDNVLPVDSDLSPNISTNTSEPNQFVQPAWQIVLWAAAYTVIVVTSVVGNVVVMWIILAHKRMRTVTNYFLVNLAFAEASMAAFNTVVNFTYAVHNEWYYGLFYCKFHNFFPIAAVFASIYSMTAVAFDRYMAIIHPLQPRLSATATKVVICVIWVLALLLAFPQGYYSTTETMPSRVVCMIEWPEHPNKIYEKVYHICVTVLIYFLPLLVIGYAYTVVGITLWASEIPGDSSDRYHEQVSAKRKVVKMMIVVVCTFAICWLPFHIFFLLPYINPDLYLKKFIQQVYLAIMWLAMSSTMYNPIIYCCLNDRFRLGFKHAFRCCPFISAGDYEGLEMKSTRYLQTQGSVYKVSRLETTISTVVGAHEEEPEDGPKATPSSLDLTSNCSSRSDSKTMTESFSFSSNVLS

[2] = target: T2, 5-hydroxytryptamine receptor 1A (Homo sapiens, UniProt P08908)
T2 sequence (P08908 whole entry): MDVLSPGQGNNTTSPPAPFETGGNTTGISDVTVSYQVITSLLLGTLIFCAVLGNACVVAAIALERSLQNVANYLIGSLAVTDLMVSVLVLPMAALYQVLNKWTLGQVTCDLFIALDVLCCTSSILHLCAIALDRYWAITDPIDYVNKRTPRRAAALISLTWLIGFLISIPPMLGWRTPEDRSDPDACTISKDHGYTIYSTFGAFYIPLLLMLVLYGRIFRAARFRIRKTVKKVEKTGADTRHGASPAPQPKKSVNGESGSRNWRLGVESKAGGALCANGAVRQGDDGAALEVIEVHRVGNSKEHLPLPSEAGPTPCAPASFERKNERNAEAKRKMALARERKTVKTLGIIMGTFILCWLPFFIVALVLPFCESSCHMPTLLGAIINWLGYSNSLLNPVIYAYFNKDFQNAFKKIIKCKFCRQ

[3] = target: Neurotensin receptor type 1 (Homo sapiens, UniProt P30989)
Chain of Neurotensin receptor type 1 (P30989 whole entry): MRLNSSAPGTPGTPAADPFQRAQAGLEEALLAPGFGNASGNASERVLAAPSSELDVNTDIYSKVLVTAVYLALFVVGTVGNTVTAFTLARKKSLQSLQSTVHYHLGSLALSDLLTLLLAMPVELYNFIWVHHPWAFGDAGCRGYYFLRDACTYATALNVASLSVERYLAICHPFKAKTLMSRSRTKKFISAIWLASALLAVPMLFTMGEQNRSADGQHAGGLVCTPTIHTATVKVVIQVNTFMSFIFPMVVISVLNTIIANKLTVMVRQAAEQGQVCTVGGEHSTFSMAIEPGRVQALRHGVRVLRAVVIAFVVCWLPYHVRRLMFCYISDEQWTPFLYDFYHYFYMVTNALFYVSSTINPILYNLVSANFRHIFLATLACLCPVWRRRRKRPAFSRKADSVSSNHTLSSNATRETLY

[4] = target: T3, Alpha-1A adrenergic receptor (Homo sapiens, UniProt P35348)
T3 sequence (P35348 whole entry): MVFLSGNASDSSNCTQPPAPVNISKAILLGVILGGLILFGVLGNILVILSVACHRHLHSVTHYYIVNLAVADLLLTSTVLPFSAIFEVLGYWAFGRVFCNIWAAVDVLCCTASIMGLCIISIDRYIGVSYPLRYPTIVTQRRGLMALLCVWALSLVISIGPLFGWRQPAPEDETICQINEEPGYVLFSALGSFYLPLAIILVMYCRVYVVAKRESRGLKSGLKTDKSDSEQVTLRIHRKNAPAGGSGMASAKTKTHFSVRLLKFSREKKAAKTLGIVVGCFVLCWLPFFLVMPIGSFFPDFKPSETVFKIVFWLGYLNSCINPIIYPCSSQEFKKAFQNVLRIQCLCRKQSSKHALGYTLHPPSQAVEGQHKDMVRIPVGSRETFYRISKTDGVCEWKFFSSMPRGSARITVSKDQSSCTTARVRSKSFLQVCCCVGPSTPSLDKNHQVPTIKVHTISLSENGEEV

[5] = target: Beta-3 adrenergic receptor (Homo sapiens, UniProt P13945)
Chain of Beta-3 adrenergic receptor (P13945 whole entry): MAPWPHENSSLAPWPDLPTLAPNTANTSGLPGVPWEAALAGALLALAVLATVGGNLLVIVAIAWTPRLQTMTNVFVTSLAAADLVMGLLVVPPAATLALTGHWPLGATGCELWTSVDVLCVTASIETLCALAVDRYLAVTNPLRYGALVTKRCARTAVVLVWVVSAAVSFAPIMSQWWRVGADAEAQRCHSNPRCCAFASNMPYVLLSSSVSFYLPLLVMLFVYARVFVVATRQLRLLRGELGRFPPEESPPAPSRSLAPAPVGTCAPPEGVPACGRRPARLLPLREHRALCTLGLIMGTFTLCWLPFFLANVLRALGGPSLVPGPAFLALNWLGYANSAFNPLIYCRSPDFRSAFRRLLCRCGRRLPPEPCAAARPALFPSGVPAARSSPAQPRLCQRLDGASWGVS

[6] = target: 5-hydroxytryptamine receptor 2A (Homo sapiens, UniProt P28223)
Chain of 5-hydroxytryptamine receptor 2A (P28223 whole entry): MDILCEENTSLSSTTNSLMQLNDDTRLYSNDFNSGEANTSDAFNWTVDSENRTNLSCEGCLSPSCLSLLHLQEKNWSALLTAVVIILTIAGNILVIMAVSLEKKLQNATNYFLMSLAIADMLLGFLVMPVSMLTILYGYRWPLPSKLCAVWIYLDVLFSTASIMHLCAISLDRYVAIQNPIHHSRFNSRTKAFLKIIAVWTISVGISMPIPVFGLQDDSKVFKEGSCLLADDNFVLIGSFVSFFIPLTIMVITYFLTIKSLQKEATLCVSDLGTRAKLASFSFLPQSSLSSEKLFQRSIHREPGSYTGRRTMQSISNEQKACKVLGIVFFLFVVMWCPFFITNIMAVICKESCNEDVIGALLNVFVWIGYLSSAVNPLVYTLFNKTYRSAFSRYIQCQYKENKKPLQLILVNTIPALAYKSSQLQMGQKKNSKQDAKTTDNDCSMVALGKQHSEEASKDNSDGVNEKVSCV

Histamine H1 receptor = Histamine H1 receptor (Homo sapiens, UniProt P35367); assay type: functional, cell-based
Chain of Histamine H1 receptor (P35367 whole entry): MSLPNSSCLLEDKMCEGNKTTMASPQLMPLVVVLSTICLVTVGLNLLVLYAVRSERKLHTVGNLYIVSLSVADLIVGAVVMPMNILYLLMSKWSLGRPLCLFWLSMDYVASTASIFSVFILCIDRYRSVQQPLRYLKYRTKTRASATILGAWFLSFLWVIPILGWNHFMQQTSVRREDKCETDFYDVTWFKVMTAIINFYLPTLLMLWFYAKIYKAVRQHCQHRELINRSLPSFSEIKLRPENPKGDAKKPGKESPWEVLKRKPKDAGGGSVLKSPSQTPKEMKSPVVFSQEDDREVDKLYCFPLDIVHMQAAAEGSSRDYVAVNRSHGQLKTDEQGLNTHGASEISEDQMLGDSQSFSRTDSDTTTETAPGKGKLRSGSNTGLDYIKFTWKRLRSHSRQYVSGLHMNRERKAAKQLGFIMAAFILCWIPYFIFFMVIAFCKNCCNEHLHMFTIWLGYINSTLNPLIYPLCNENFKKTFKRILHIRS
Further: assay procedure not described here.

Chain of Estrogen receptor beta (Q92731 whole entry): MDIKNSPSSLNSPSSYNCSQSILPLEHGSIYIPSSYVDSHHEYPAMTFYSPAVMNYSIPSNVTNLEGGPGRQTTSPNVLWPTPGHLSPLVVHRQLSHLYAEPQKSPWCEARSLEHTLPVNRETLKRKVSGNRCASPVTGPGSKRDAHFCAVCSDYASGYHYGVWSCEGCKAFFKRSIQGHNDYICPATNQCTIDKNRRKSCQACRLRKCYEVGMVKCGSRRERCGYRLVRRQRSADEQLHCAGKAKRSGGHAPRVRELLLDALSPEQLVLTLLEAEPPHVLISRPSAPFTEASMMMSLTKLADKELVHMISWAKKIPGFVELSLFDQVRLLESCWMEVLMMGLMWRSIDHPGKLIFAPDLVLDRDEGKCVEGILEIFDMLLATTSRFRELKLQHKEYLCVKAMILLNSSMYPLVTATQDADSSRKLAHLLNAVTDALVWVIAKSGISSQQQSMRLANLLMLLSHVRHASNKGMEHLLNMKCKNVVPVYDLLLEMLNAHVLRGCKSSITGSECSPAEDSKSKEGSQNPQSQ

Row | Compound | AC50 (Estrogen receptor beta) | AC50 (Androgen receptor) | AC50 [1] | AC50 (Substance-P receptor) | AC50 [2] | AC50 [3] | AC50 [4] | AC50 [5] | AC50 [6] | AC50 (Histamine H1 receptor)
1 | O=C1CN=C(c2ccccc2Cl)c2cc([N+](=O)[O-])ccc2N1 [CLONAZEPAM] | > 30 µM | > 30 µM | > 10 µM | > 10 µM | > 10 µM | > 30 µM | > 10 µM | > 30 µM | – | –
2 | COc1ccc2c3c1O[C@H]1C(=O)CC[C@H]4[C@@H](C2)N(C)CC[C@]314 [HYDROCODONE] | > 30 µM | – | > 10 µM | > 10 µM | > 10 µM | > 30 µM | > 10 µM | > 30 µM | > 10 µM | –
3 | CN1C(=O)CN=C(c2ccccc2F)c2cc([N+](=O)[O-])ccc21 [FLUNITRAZEPAM] | > 30 µM | > 30 µM | > 10 µM | > 10 µM | > 10 µM | > 30 µM | > 10 µM | > 30 µM | > 10 µM | –
4 | CN1C2CCCC1CC(NC(=O)c1nn(C)c3ccccc13)C2 (configuration not stated) [GRANISETRON] | > 30 µM | – | > 10 µM | > 10 µM | > 10 µM | > 30 µM | > 10 µM | > 30 µM | – | –
5 | CCOC(=O)C1=C(C)NC(C)=C(C(=O)OC)C1c1cccc(Cl)c1Cl (configuration not stated) [FELODIPINE] | > 30 µM | – | > 10 µM | > 10 µM | > 10 µM | > 30 µM | > 10 µM | 10.4 µM | – | –
6 | O=C(O[C@H]1C[N+]2(CCCOc3ccccc3)CCC1CC2)C(O)(c1cccs1)c1cccs1 [ACLIDINIUM BROMIDE] | – | – | > 10 µM | 0.497 µM | > 10 µM | > 30 µM | 5.1 µM | – | > 10 µM | –
7 | Cc1ccc(-c2ncc(Cl)cc2-c2ccc(S(C)(=O)=O)cc2)cn1 [ETORICOXIB] | > 30 µM | > 30 µM | > 10 µM | > 10 µM | > 10 µM | > 30 µM | > 10 µM | > 30 µM | > 10 µM | > 30 µM
8 | CC(NC(C)(C)C)C(=O)c1cccc(Cl)c1 (configuration not stated) [BUPROPION] | > 30 µM | – | > 10 µM | > 10 µM | > 10 µM | > 30 µM | > 10 µM | > 30 µM | – | –
